Laboratory results taken from article PMC5125695, “Antiviral Efficacy of Verdinexor In Vivo in Two Animal Models of Influenza A Virus Infection” (PLoS ONE, 2016).
Read-outs that look alike come from different tables or passages of the source.

What was measured:
A/California/04/09 [1] = system: A/California/04/09; set-up: species or system ferrets; conditions: in vivo
A/California/04/09 [2] = system: A/California/04/09; set-up: species or system ferrets; conditions: in vivo; remark: listed apart in the source
A/California/04/09 [3] = format: in vivo, ferrets
A/California/04/09 [4] = system: A/California/04/09; set-up: species or system ferrets; conditions: in vivo; remark: listed apart in the source
[5] = preliminary results, phase I and II studies; cited from earlier work
[6] = human, in vivo; cited from earlier work
[7] = in vivo
A/California/04/09-MA = conditions: cited from earlier work
[8] = system: various influenza A and B virus strains; conditions: cited from earlier work
in vivo = conditions: male, po, 5 mg/kg
[9] = mice, 20 mg/kg at day 1 and 3; data not shown

## CCOC(=O)C1=C[C@@H](OC(CC)CC)[C@H](NC(C)=O)[C@@H](N)C1 [oseltamivir, reference compound]
A/California/04/09 [1]
  Lung virus titers at day 4 pi: considerably (p≤0.001) reduced lung virus titers
A/California/04/09 [2]
  Influenza-associated lung pathology and inflammation: limited reduction in pathology
  Lung score of the representative animal (range 0–4): 3
A/California/04/09 [3]; in vivo
  IFN-γ expression in nasal exudates at day 2 and 4 pi: trend toward reduced IFN-γ expression
  IL-12p40 expression in nasal exudates at day 2 pi: reduced IL-12p40 expression
  TNF-α expression in nasal exudates at day 2 pi: reduced TNF-α expression
A/California/04/09 [4]
  Infiltrating leukocytes in nasal washes at day 2 pi: Lower numbers of infiltrating leukocytes

## O=C(/C=C\n1cnc(-c2cc(C(F)(F)F)cc(C(F)(F)F)c2)n1)NNc1cnccn1 [selinexor]
[5]
  Anti-cancer activity in human patients: evidence of anti-cancer activity
  Oral exposure in human patients: good oral exposure

## O=C(/C=C\n1cnc(-c2cc(C(F)(F)F)cc(C(F)(F)F)c2)n1)NNc1ccccn1 [verdinexor]
[6]
  Safety and tolerability in a phase I clinical trial: safe and well-tolerated
[7]
  Clearance from the plasma: more rapidly cleared from the plasma compared to mice
[7]; po
  Oral bioavailability: orally bioavailable
A/California/04/09 [1]; 10 mg/kg
  Lung virus titers at day 4 pi: considerably (p≤0.001) reduced lung virus titers
A/California/04/09 [1]; 15 mg/kg
  Lung virus titers at day 4 pi: considerably (p≤0.001) reduced lung virus titers
A/California/04/09 [1]; 25 mg/kg
  Lung virus titers at day 4 pi: considerably (p≤0.001) reduced lung virus titers
A/California/04/09 [2]; 10 mg/kg
  Influenza-associated lung pathology and inflammation: significant amelioration
  Lung score of the representative animal (range 0–4): 2
A/California/04/09 [2]; 15 mg/kg
  Influenza-associated lung pathology and inflammation: limited reduction in pathology
  Lung score of the representative animal (range 0–4): 2
A/California/04/09 [2]; 25 mg/kg
  Influenza-associated lung pathology and inflammation: significant amelioration
  Lung score of the representative animal (range 0–4): 2
A/California/04/09-MA; mice infected with A/California/04/09-MA
  Virus burden and inflammatory cytokines expression in lungs: efficacious in limiting virus burden and inflammatory cytokines expression
A/California/04/09-MA; mice, oral verdinexor
  Lung pathology and mortality upon lethal virus infection: reduced lung pathology and mortality
[8]
  Replication of various influenza A and B virus strains: effective to inhibit the replication
In vivo
  AUC(0-inf): 3510 ng·h/mL
  AUC(0-t): 3510 ng·h/mL
  Cmax: 1490 ng/mL
  Tmax: 0.361 h
  half-life: 1.84 h
[9]
  Efficacy and tolerability of the treatment regimen: most efficacious yet well tolerated
A/California/04/09 [3]; […], not statistically significant
  IFN-γ expression in nasal exudates at day 2 and 4 pi: trend toward reduced IFN-γ expression
A/California/04/09 [3]; in vivo, 10 mg/kg
  IL-12p40 expression in nasal exudates at day 2 pi: reduced IL-12p40 expression
A/California/04/09 [3]; in vivo, 25 mg/kg
  IL-12p40 expression in nasal exudates at day 2 pi: reduced IL-12p40 expression
  TNF-α expression in nasal exudates at day 2 pi: reduced TNF-α expression
A/California/04/09 [4]
  Infiltrating leukocytes in nasal washes at day 2 pi: Lower numbers of infiltrating leukocytes
A/California/04/09 [4]; 10 mg/kg
  Infiltrating leukocytes in nasal washes at day 4 pi: significant (p≤0.05) reduction
A/California/04/09 [4]; 25 mg/kg
  Infiltrating leukocytes in nasal washes at day 4 pi: significant (p≤0.05) reduction
